Laboratory results from patent publication US8686044B2, “Amide derivative, pest control agent containing the amide derivative, and use of the amide derivative” (Mitsui Chemicals Agro, Inc., priority 2008, dated 2014).

Key:
Format in all cases: in vivo
Musca domestica = experiment: Pesticidal test against Musca domestica (petri dish dry film); conditions: 24 h, concentration 100 ppm, female adults, examined after 1 day, 25° C., read-out: pesticidal rate
Method in brief: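 Dry film from 1 ml acetone solution of compound at a predetermined concentration, air-dried in a 9 cm petri dish; female adult flies released and dish capped. Held at 25° C; living and dead counted after 1 day. Five insects per group, two replicates.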

Laodelphax striatellus = experiment: Pesticidal test against Laodelphax striatellus (rice seedling spray); conditions: 144 h, concentration 100 ppm, 3-stage larvae, examined after 6 days, 25° C., read-out: pesticidal rate
Method in brief: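 Rice seedlings sprayed with 2.5 ml acetone solution of compound at a predetermined concentration, air-dried, then infested with third-stage Laodelphax striatellus larvae in capped water-containing tubes at 25 °C. Living and dead insects counted after 6 days; ten larvae per group, two replicates.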

Plutella xylostella = experiment: Pesticidal test against Plutella xylostella (cabbage leaf dip); conditions: foliar, 144 h, concentration 1 ppm, 2-stage larvae, examined after 6 days, 25° C., read-out: pesticidal rate
Method in brief: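 Cabbage leaf pieces dipped 30 s in test solution at a predetermined concentration, air-dried, then offered to 2nd-instar larvae, five per group in duplicate. Held at 25° C; living and dead larvae counted after 6 days.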

Helicoverpa armigera = experiment: Pesticidal test against Helicoverpa armigera (cabbage leaf disk dip); conditions: foliar, 72 h, concentration 1 ppm, 2-stage larvae, examined after 3 days, 25° C., read-out: pesticidal rate
Method in brief: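 Cabbage leaf disks were dipped for 30 s in test solution at a set concentration and air-dried. Second-instar larvae were placed one per hole and held at 25 °C, with live and dead counts taken after 3 days. Five larvae per group were tested in two replicates.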

Adoxophyes honmai = experiment: Pesticidal test against Adoxophyes honmai (artificial feed dip); conditions: 144 h, 2-stage larvae, examined after 6 days, 25° C., read-out: pesticidal rate; for pest or weed control at 1 ppm: concentration 1 ppm; for pest or weed control at 10 ppm: concentration 10 ppm
Method in brief: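 Thin artificial feed slices dipped 30 s in test solution at a predetermined concentration, air-dried, then offered to 2nd-stage larvae. Kept at 25° C; live and dead larvae counted after 6 days. Five larvae per group, two replicates.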

Choristoneura magnanima = experiment: Pesticidal test against Choristoneura magnanima (artificial feed dip); conditions: 144 h, 2-stage larvae, examined after 6 days, 25° C., read-out: pesticidal rate; for pest or weed control at 1 ppm: concentration 1 ppm
Procedure: Pesticidal Test against Choristoneura magnanima A thinly sliced artificial feed was immersed for 30 seconds in a chemical solution in which a test compound had been prepared at a predetermined concentration, and air-dried, and then put into a 7 cm polyethylene cup having a filter paper laid on the bottom thereof, and 2-stage larvae of Choristoneura magnanima were released. They were left to stand in a thermostatic chamber at 25° C., and the numbers of the living pests and the dead pests were examined after 6 days. The test was carried out with five larvae per group in two replicates. Further, the above compound (A) was used as a comparative compound.

Spodoptera litura = experiment: Pesticidal test against Spodoptera litura (cabbage leaf dip); conditions: foliar, 144 h, concentration 1 ppm, 2-stage larvae, examined after 6 days, 25° C., read-out: pesticidal rate
Method in brief: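 Cabbage leaf pieces dipped 30 seconds in compound solution at a predetermined concentration and air-dried, then offered to second-stage larvae, five per group in two replicates. Held at 25° C. Living and dead larvae counted after 6 days.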

O=C(Nc1c(I)cc(C(F)(C(F)(F)F)C(F)(F)C(F)(F)F)cc1I)c1cccc(NC(=O)c2ccccc2F)c1 (stereo not shown) [6-72]
≥ 70%: pest or weed control at 100 ppm (Musca domestica) | pest or weed control at 100 ppm (Laodelphax striatellus) | pest or weed control at 1 ppm (Plutella xylostella) | pest or weed control at 1 ppm (Helicoverpa armigera) | pest or weed control at 1 ppm (Adoxophyes honmai) | pest or weed control at 1 ppm (Choristoneura magnanima) | pest or weed control at 1 ppm (Spodoptera litura)

N#Cc1cccc(C(=O)Nc2cccc(C(=O)Nc3c(Br)cc(C(F)(C(F)(F)F)C(F)(F)C(F)(F)F)cc3C(F)(F)F)c2F)c1 (stereo not shown) [6-1672]
≥ 70%: pest or weed control at 100 ppm (Musca domestica) | pest or weed control at 100 ppm (Laodelphax striatellus) | pest or weed control at 1 ppm (Plutella xylostella) | pest or weed control at 1 ppm (Helicoverpa armigera) | pest or weed control at 1 ppm (Adoxophyes honmai) | pest or weed control at 1 ppm (Choristoneura magnanima) | pest or weed control at 1 ppm (Spodoptera litura)

O=C(Nc1cccc(C(=O)Nc2c(Br)cc(C(F)(C(F)(F)F)C(F)(F)C(F)(F)F)cc2C(F)(F)F)c1F)c1ccc(Cl)nc1 (stereo not shown) [6-1695]
≥ 70%: pest or weed control at 100 ppm (Musca domestica) | pest or weed control at 100 ppm (Laodelphax striatellus) | pest or weed control at 1 ppm (Plutella xylostella) | pest or weed control at 1 ppm (Helicoverpa armigera) | pest or weed control at 10 ppm (Adoxophyes honmai) | pest or weed control at 1 ppm (Choristoneura magnanima) | pest or weed control at 1 ppm (Spodoptera litura)

O=C(Nc1cccc(C(=O)Nc2c(I)cc(C(F)(C(F)(F)F)C(F)(F)C(F)(F)F)cc2C(F)(F)F)c1F)c1ccccc1F (stereo not shown) [6-1809]
≥ 70%: pest or weed control at 100 ppm (Musca domestica) | pest or weed control at 100 ppm (Laodelphax striatellus) | pest or weed control at 1 ppm (Plutella xylostella) | pest or weed control at 1 ppm (Helicoverpa armigera) | pest or weed control at 1 ppm (Adoxophyes honmai) | pest or weed control at 1 ppm (Choristoneura magnanima) | pest or weed control at 1 ppm (Spodoptera litura)

N#Cc1cccc(C(=O)Nc2cccc(C(=O)Nc3c(I)cc(C(F)(C(F)(F)F)C(F)(F)C(F)(F)F)cc3C(F)(F)F)c2F)c1 (stereo not shown) [6-1828]
≥ 70%: pest or weed control at 100 ppm (Musca domestica) | pest or weed control at 100 ppm (Laodelphax striatellus) | pest or weed control at 1 ppm (Plutella xylostella) | pest or weed control at 1 ppm (Helicoverpa armigera) | pest or weed control at 1 ppm (Adoxophyes honmai) | pest or weed control at 1 ppm (Choristoneura magnanima) | pest or weed control at 1 ppm (Spodoptera litura)

O=C(Nc1c(I)cc(C(F)(C(F)(F)F)C(F)(F)C(F)(F)F)cc1C(F)(F)F)c1cccc(NC(=O)c2c(F)cccc2F)c1F (stereo not shown) [6-1830]
≥ 70%: pest or weed control at 100 ppm (Musca domestica) | pest or weed control at 100 ppm (Laodelphax striatellus) | pest or weed control at 1 ppm (Plutella xylostella) | pest or weed control at 1 ppm (Helicoverpa armigera) | pest or weed control at 1 ppm (Adoxophyes honmai) | pest or weed control at 1 ppm (Choristoneura magnanima) | pest or weed control at 1 ppm (Spodoptera litura)

O=C(Nc1cccc(C(=O)Nc2c(I)cc(C(F)(C(F)(F)F)C(F)(F)C(F)(F)F)cc2C(F)(F)F)c1F)c1ccc(Cl)nc1 (stereo not shown) [6-1851]
≥ 70%: pest or weed control at 100 ppm (Musca domestica) | pest or weed control at 100 ppm (Laodelphax striatellus) | pest or weed control at 1 ppm (Plutella xylostella) | pest or weed control at 1 ppm (Helicoverpa armigera) | pest or weed control at 10 ppm (Adoxophyes honmai) | pest or weed control at 1 ppm (Choristoneura magnanima) | pest or weed control at 1 ppm (Spodoptera litura)

O=C(Nc1cccc(C(=O)Nc2c(C(F)(F)F)cc(C(F)(C(F)(F)F)C(F)(F)F)cc2C(F)(F)F)c1F)c1ccccc1 [6-2110, 3-benzamide-2-fluoro-N-(4-(perfluoropropan-2-yl)-2,6-bis(trifluoromethyl)phenyl)benzamide]
≥ 70%: pest or weed control at 100 ppm (Musca domestica) | pest or weed control at 100 ppm (Laodelphax striatellus) | pest or weed control at 1 ppm (Plutella xylostella) | pest or weed control at 1 ppm (Helicoverpa armigera) | pest or weed control at 10 ppm (Adoxophyes honmai) | pest or weed control at 10 ppm (Choristoneura magnanima; concentration 10 ppm) | pest or weed control at 1 ppm (Spodoptera litura)

CN(C(=O)c1cccc(F)c1)c1cccc(C(=O)Nc2c(Br)cc(C(F)(C(F)(F)F)C(F)(F)C(F)(F)F)cc2C(F)(F)F)c1 (stereo not shown) [7-348]
≥ 70%: pest or weed control at 100 ppm (Musca domestica) | pest or weed control at 100 ppm (Laodelphax striatellus) | pest or weed control at 1 ppm (Plutella xylostella) | pest or weed control at 1 ppm (Helicoverpa armigera) | pest or weed control at 1 ppm (Adoxophyes honmai) | pest or weed control at 1 ppm (Choristoneura magnanima) | pest or weed control at 1 ppm (Spodoptera litura)

CN(C(=O)c1cccc(C#N)c1)c1cccc(C(=O)Nc2c(Br)cc(C(F)(C(F)(F)F)C(F)(F)C(F)(F)F)cc2C(F)(F)F)c1 (stereo not shown) [7-366]
≥ 70%: pest or weed control at 100 ppm (Musca domestica) | pest or weed control at 1 ppm (Plutella xylostella) | pest or weed control at 1 ppm (Helicoverpa armigera) | pest or weed control at 1 ppm (Adoxophyes honmai) | pest or weed control at 1 ppm (Choristoneura magnanima) | pest or weed control at 1 ppm (Spodoptera litura)

CN(C(=O)c1cccc(C#N)c1)c1cccc(C(=O)Nc2c(I)cc(C(F)(C(F)(F)F)C(F)(F)C(F)(F)F)cc2I)c1F (stereo not shown) [7-1358]
≥ 70%: pest or weed control at 100 ppm (Musca domestica) | pest or weed control at 100 ppm (Laodelphax striatellus) | pest or weed control at 1 ppm (Plutella xylostella) | pest or weed control at 1 ppm (Helicoverpa armigera) | pest or weed control at 1 ppm (Adoxophyes honmai) | pest or weed control at 1 ppm (Choristoneura magnanima) | pest or weed control at 1 ppm (Spodoptera litura)

CN(C(=O)c1ccccc1)c1cccc(C(=O)Nc2c(Br)cc(C(F)(C(F)(F)F)C(F)(F)C(F)(F)F)cc2C(F)(F)F)c1F (stereo not shown) [7-1652]
≥ 70%: pest or weed control at 100 ppm (Musca domestica) | pest or weed control at 100 ppm (Laodelphax striatellus) | pest or weed control at 1 ppm (Plutella xylostella) | pest or weed control at 1 ppm (Helicoverpa armigera) | pest or weed control at 1 ppm (Adoxophyes honmai) | pest or weed control at 1 ppm (Choristoneura magnanima) | pest or weed control at 1 ppm (Spodoptera litura)

CN(C(=O)c1cccnc1)c1cccc(C(=O)Nc2c(I)cc(C(F)(C(F)(F)F)C(F)(F)F)cc2C(F)(F)F)c1F [7-1764]
≥ 70%: pest or weed control at 100 ppm (Musca domestica) | pest or weed control at 100 ppm (Laodelphax striatellus) | pest or weed control at 1 ppm (Plutella xylostella) | pest or weed control at 1 ppm (Helicoverpa armigera) | pest or weed control at 1 ppm (Adoxophyes honmai) | pest or weed control at 1 ppm (Choristoneura magnanima) | pest or weed control at 1 ppm (Spodoptera litura)

CN(C(=O)c1ccccc1)c1cccc(C(=O)Nc2c(I)cc(C(F)(C(F)(F)F)C(F)(F)C(F)(F)F)cc2C(F)(F)F)c1F (stereo not shown) [7-1808]
≥ 70%: pest or weed control at 100 ppm (Musca domestica) | pest or weed control at 100 ppm (Laodelphax striatellus) | pest or weed control at 1 ppm (Plutella xylostella) | pest or weed control at 1 ppm (Helicoverpa armigera) | pest or weed control at 1 ppm (Adoxophyes honmai) | pest or weed control at 1 ppm (Choristoneura magnanima) | pest or weed control at 1 ppm (Spodoptera litura)

CN(C(=O)c1ccccc1F)c1cccc(C(=O)Nc2c(I)cc(C(F)(C(F)(F)F)C(F)(F)C(F)(F)F)cc2C(F)(F)F)c1F (stereo not shown) [7-1809]
≥ 70%: pest or weed control at 100 ppm (Musca domestica) | pest or weed control at 100 ppm (Laodelphax striatellus) | pest or weed control at 1 ppm (Plutella xylostella) | pest or weed control at 1 ppm (Helicoverpa armigera) | pest or weed control at 1 ppm (Adoxophyes honmai) | pest or weed control at 1 ppm (Choristoneura magnanima) | pest or weed control at 1 ppm (Spodoptera litura)

CN(C(=O)c1cccc(F)c1)c1cccc(C(=O)Nc2c(I)cc(C(F)(C(F)(F)F)C(F)(F)C(F)(F)F)cc2C(F)(F)F)c1F (stereo not shown) [7-1810]
≥ 70%: pest or weed control at 100 ppm (Musca domestica) | pest or weed control at 100 ppm (Laodelphax striatellus) | pest or weed control at 1 ppm (Plutella xylostella) | pest or weed control at 1 ppm (Helicoverpa armigera) | pest or weed control at 1 ppm (Adoxophyes honmai) | pest or weed control at 1 ppm (Choristoneura magnanima) | pest or weed control at 1 ppm (Spodoptera litura)

CN(C(=O)c1ccc(F)cc1)c1cccc(C(=O)Nc2c(I)cc(C(F)(C(F)(F)F)C(F)(F)C(F)(F)F)cc2C(F)(F)F)c1F (stereo not shown) [7-1811]
≥ 70%: pest or weed control at 100 ppm (Musca domestica) | pest or weed control at 100 ppm (Laodelphax striatellus) | pest or weed control at 1 ppm (Plutella xylostella) | pest or weed control at 1 ppm (Helicoverpa armigera) | pest or weed control at 1 ppm (Adoxophyes honmai) | pest or weed control at 1 ppm (Choristoneura magnanima) | pest or weed control at 1 ppm (Spodoptera litura)
